Experimental data published in US10316035B2, “Triazolopyridine inhibitors of myeloperoxidase” (BRISTOL-MYERS SQUIBB COMPANY, priority 2015, dated 2019).

Target: T1, myeloperoxidase (MPO) (Homo sapiens, UniProt P05164)
T1 sequence (P05164 49-745): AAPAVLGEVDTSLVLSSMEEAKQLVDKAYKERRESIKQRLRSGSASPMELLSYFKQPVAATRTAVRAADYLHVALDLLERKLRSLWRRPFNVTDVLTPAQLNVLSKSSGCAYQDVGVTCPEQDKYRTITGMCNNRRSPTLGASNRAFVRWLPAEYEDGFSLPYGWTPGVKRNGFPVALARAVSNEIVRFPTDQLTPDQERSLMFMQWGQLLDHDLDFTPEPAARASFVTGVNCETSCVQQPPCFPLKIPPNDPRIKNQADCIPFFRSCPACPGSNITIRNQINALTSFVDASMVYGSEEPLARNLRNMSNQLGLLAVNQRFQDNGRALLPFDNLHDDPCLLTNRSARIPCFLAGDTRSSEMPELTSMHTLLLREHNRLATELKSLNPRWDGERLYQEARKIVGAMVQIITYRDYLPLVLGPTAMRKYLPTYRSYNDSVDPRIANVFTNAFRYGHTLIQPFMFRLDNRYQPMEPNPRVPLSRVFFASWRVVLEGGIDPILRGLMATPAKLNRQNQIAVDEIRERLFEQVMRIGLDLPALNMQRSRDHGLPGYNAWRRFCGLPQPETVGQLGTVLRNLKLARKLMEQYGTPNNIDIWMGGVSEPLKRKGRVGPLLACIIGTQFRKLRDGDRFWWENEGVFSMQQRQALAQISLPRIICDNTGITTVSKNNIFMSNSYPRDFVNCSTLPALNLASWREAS
Test: MPO peroxidation assay (Amplex Red assay)
Assay type: biochemical
Conditions: not given
Protocol: MPO Peroxidation Assay (Amplex Red Assay)
MPO peroxidation activity was measured in 100 mM KPi (pH 7.4) by utilizing the non-fluorescent reagent Amplex Red (Invitrogen catalog # A12222) which can be oxidized to the highly fluorescent resorufin. Amplex Red is oxidized by the peroxidase action of MPO to resorufin. Reactions were carried out in 50 μL total volume by adding a 25 μL mixture of 200 pM myeloperoxidase and 40 nM H2O2(Sigma #349887) to 100 nL inhibitor in 100% DMSO in a 384 well Perkin Elmer Optiplate. Enzyme and compound were preincubated for ten minutes at room temperature.
After the ten minute preincubation, 25 μL of an Amplex Red mixture containing 200 μM Amplex Red and 10 mM H2O2 was added to the plate. Kinetic determinations were carried out immediately on a Perkin Elmer Envision (15 minute kinetic read, Ex: 535 nm, Em: 590 nm).
IC50 values were calculated by determining the slope of the linear portion of the kinetic trace ([…]), and using that calculated slope to determine % inhibition occurring at each concentration of inhibitor using the following equation:
[formula] where A=minimal Y value (activity level of inhibited sample), B=maximal Y value (activity level of uninhibited sample), C=Log IC50, D=Hill Slope, x=concentration of inhibitor. MPO Chlorination Assay (APF Assay)

**Q.** For `Cn1cc(-c2cccc(COc3cc(N)nc4[nH]nnc34)c2)cn1` [Example 77, 7-(3-(1-Methyl-1H-pyrazol-4-yl)benzyloxy)-3H-[1,2,3]triazolo[4,5-b]pyridin-5-amine], which IC50 is on record?
**A.** 1 to 100 nM

**Q.** With `Cc1c(COc2cc(N)nc3[nH]nnc23)cccc1-c1ccn(C)n1` [Example 81, 7-(2-Methyl-3-(1-methyl-1H-pyrazol-3-yl)benzyloxy)-3H-[1,2,3]triazolo[4,5-b]pyridin-5-amine] as the molecule, how does the IC50 read?
**A.** 1 to 100 nM

**Q.** `Nc1cc(OCc2cccc(-c3cccc(F)c3)c2)c2nn[nH]c2n1` [Example 91, 7-((3′-Fluorobiphenyl-3-yl)methoxy)-3H-[1,2,3]triazolo[4,5-b]pyridin-5-amine] was tested. Which IC50 did it give?
**A.** 1 to 100 nM

**Q.** How did the IC50 turn out when `Nc1cc(OCc2cccc(-c3ccccc3F)c2)c2nn[nH]c2n1` [Example 96, 7-((2′-Fluorobiphenyl-3-yl)methoxy)-3H-[1,2,3]triazolo[4,5-b]pyridin-5-amine] was run?
**A.** 1 to 100 nM

Same assay, conditions: MPO peroxidation, potency range class; read-out: Amplex Red IC50

**Q.** For `Nc1cc(OCc2cc(-c3cccc(F)c3)ccc2F)c2nn[nH]c2n1` [Example 71, 7-((3′,4-Difluorobiphenyl-3-yl)methoxy)-3H-[1,2,3]triazolo[4,5-b]pyridin-5-amine], which IC50 is on record?
**A.** 1 to 100 nM

**Q.** With `Nc1cc(OCc2cccc(-c3cccc(F)c3)c2F)c2nn[nH]c2n1` [Example 72, 7-((2,3′-Difluorobiphenyl-3-yl)methoxy)-3H-[1,2,3]triazolo[4,5-b]pyridin-5-amine] as the molecule, how does the IC50 read?
**A.** 1 to 100 nM

**Q.** For `COc1ccccc1-c1ccc(F)c(COc2cc(N)nc3[nH]nnc23)c1F` [Example 73, 7-((2,4-Difluoro-2′-methoxybiphenyl-3-yl)methoxy)-3H-[1,2,3]triazolo[4,5-b]pyridin-5-amine], which IC50 is on record?
**A.** 1 to 100 nM

**Q.** For `Nc1cc(OCc2cccc(-c3cnn(Cc4ccccc4)c3)c2)c2nn[nH]c2n1` [Example 74, 7-(3-(1-Benzyl-1H-pyrazol-4-yl)benzyloxy)-3H-[1,2,3]triazolo[4,5-b]pyridin-5-amine], which IC50 is on record?
**A.** 1 to 100 nM

**Q.** How did the IC50 turn out when `Nc1cc(OCc2cccc(-c3ccn(Cc4ccccc4)n3)c2)c2nn[nH]c2n1` [Example 75, 7-(3-(1-Benzyl-1H-pyrazol-3-yl)benzyloxy)-3H-[1,2,3]triazolo[4,5-b]pyridin-5-amine] was run?
**A.** 101 to 999 nM

**Q.** Which IC50 does the source give for `Cn1nccc1-c1cccc(COc2cc(N)nc3[nH]nnc23)c1` [Example 78, 7-(3-(1-Methyl-1H-pyrazol-5-yl)benzyloxy)-3H-[1,2,3]triazolo[4,5-b]pyridin-5-amine] here?
**A.** 1 to 100 nM

**Q.** Which IC50 does the source give for `Cn1nc(C(F)(F)F)cc1-c1cccc(COc2cc(N)nc3[nH]nnc23)c1` [Example 79, 7-(3-(1-Methyl-3-(trifluoromethyl)-1H-pyrazol-5-yl)benzyloxy)-3H-[1,2,3]triazolo[4,5-b]pyridin-5-amine] here?
**A.** 101 to 999 nM

**Q.** `COc1c(COc2cc(N)nc3[nH]nnc23)cccc1-c1ccn(C)n1` [Example 80, 7-(2-Methoxy-3-(1-methyl-1H-pyrazol-3-yl)benzyloxy)-3H-[1,2,3]triazolo[4,5-b]pyridin-5-amine] was tested. Which IC50 did it give?
**A.** 101 to 999 nM

**Q.** With `CC(C)Cn1cc(-c2ccc(F)c(COc3cc(N)nc4[nH]nnc34)c2)cn1` [Example 82, 7-(2-Fluoro-5-(1-isobutyl-1H-pyrazol-4-yl)benzyloxy)-3H-[1,2,3]triazolo[4,5-b]pyridin-5-amine] as the molecule, how does the IC50 read?
**A.** 1 to 100 nM

**Q.** `COc1ccc(-n2cncn2)cc1COc1cc(N)nc2[nH]nnc12` [Example 83, 7-(2-Methoxy-5-(1H-1,2,4-triazol-1-yl)benzyloxy)-3H-[1,2,3]triazolo[4,5-b]pyridin-5-amine] was tested. Which IC50 did it give?
**A.** 1 to 100 nM

**Q.** For `Cc1cn(-c2cccc(COc3cc(N)nc4[nH]nnc34)c2)cn1` [Example 84, 7-(3-(4-Methyl-1H-imidazol-1-yl)benzyloxy)-3H-[1,2,3]triazolo[4,5-b]pyridin-5-amine], which IC50 is on record?
**A.** 101 to 999 nM

**Q.** With `Cc1ccn(-c2cccc(COc3cc(N)nc4[nH]nnc34)c2)n1` [Example 85, 7-(3-(3-Methyl-1H-pyrazol-1-yl)benzyloxy)-3H-[1,2,3]triazolo[4,5-b]pyridin-5-amine] as the molecule, how does the IC50 read?
**A.** 101 to 999 nM

**Q.** `Cc1c(COc2cc(N)nc3[nH]nnc23)cccc1-n1cncn1` [Example 86, 7-(2-Methyl-3-(1H-1,2,4-triazol-1-yl)benzyloxy)-3H-[1,2,3]triazolo[4,5-b]pyridin-5-amine] was tested. Which IC50 did it give?
**A.** 1 to 100 nM

**Q.** Which IC50 does the source give for `COc1ccc(-n2cnc(C)n2)cc1COc1cc(N)nc2[nH]nnc12` [Example 87, 7-(2-Methoxy-5-(3-methyl-1H-1,2,4-triazol-1-yl)benzyloxy)-3H-[1,2,3]triazolo[4,5-b]pyridin-5-amine] here?
**A.** 1000 to 10000 nM

**Q.** Which IC50 does the source give for `CCOc1ccc(Cl)cc1COc1cc(N)nc2[nH]nnc12` [Example 88, 7-(5-Chloro-2-ethoxybenzyloxy)-3H-[1,2,3]triazolo[4,5-b]pyridin-5-amine] here?
**A.** 1 to 100 nM

**Q.** For `Nc1cc(OCc2cc(Cl)ccc2OCC2CCCO2)c2nn[nH]c2n1` (stereo not shown) [Example 89, 7-(5-Chloro-2-((tetrahydrofuran-2-yl)methoxy)benzyloxy)-3H-[1,2,3]triazolo[4,5-b]pyridin-5-amine], which IC50 is on record?
**A.** 1 to 100 nM

**Q.** For `Nc1cc(OCC2CCC(c3ccccc3)CC2)c2nn[nH]c2n1` (stereo not shown) [Example 90, 7-((4-Phenylcyclohexyl)methoxy)-3H-[1,2,3]triazolo[4,5-b]pyridin-5-amine], which IC50 is on record?
**A.** 1 to 100 nM

**Q.** For `N#Cc1cccc(-c2cccc(COc3cc(N)nc4[nH]nnc34)c2)c1` [Example 92, 3′-((5-Amino-3H-[1,2,3]triazolo[4,5-b]pyridin-7-yloxy)methyl)biphenyl-3-carbonitrile], which IC50 is on record?
**A.** 1 to 100 nM

**Q.** With `Nc1cc(OCc2cccc(-c3ccccc3Cl)c2)c2nn[nH]c2n1` [Example 93, 7-((2′-Chlorobiphenyl-3-yl)methoxy)-3H-[1,2,3]triazolo[4,5-b]pyridin-5-amine] as the molecule, how does the IC50 read?
**A.** 1 to 100 nM

**Q.** With `Nc1cc(OCc2cccc(-c3ccc(F)cc3)c2)c2nn[nH]c2n1` [Example 95, 7-((4′-Fluorobiphenyl-3-yl)methoxy)-3H-[1,2,3]triazolo[4,5-b]pyridin-5-amine] as the molecule, how does the IC50 read?
**A.** 1 to 100 nM

**Q.** How did the IC50 turn out when `Nc1cc(OCc2cccc(-c3ccc(Cl)cc3)c2)c2nn[nH]c2n1` [Example 97, 7-((4′-Chlorobiphenyl-3-yl)methoxy)-3H-[1,2,3]triazolo[4,5-b]pyridin-5-amine] was run?
**A.** 101 to 999 nM

**Q.** Which IC50 does the source give for `Nc1cc(OCc2cccc(-c3ccc(-c4ccn[nH]4)cc3)c2)c2nn[nH]c2n1` [Example 98, 7-((4′-(1H-Pyrazol-5-yl)biphenyl-3-yl)methoxy)-3H-[1,2,3]triazolo[4,5-b]pyridin-5-amine] here?
**A.** 1 to 100 nM

**Q.** With `CN1CCN(c2ccc(-c3cccc(COc4cc(N)nc5[nH]nnc45)c3)cc2)CC1` [Example 99, 7-((4′-(4-Methylpiperazin-1-yl)biphenyl-3-yl)methoxy)-3H-[1,2,3]triazolo[4,5-b]pyridin-5-amine] as the molecule, how does the IC50 read?
**A.** 101 to 999 nM

**Q.** `Nc1cc(OCc2cccc(-c3ccc(NC(=O)c4ccccc4)cc3)c2)c2nn[nH]c2n1` [Example 100, N-(3′-((5-Amino-3H-[1,2,3]triazolo[4,5-b]pyridin-7-yloxy)methyl)biphenyl-4-yl)benzamide] was tested. Which IC50 did it give?
**A.** 1 to 100 nM

**Q.** How did the IC50 turn out when `N#Cc1ccc(-c2cccc(COc3cc(N)nc4[nH]nnc34)c2)cc1` [Example 101, 3′-((5-Amino-3H-[1,2,3]triazolo[4,5-b]pyridin-7-yloxy)methyl)biphenyl-4-carbonitrile] was run?
**A.** 1 to 100 nM

**Q.** How did the IC50 turn out when `Nc1cc(OCc2cccc(-c3ccc(-c4ccccc4)cc3)c2)c2nn[nH]c2n1` [Example 102, 7-((4′-Phenylbiphenyl-3-yl)methoxy)-3H-[1,2,3]triazolo[4,5-b]pyridin-5-amine] was run?
**A.** 101 to 999 nM

**Q.** Which IC50 does the source give for `Nc1cc(OCc2cccc(-c3cccnc3)c2)c2nn[nH]c2n1` [Example 103, 7-(3-(Pyridin-3-yl)benzyloxy)-3H-[1,2,3]triazolo[4,5-b]pyridin-5-amine] here?
**A.** 1 to 100 nM

**Q.** With `Nc1cc(OCc2cccc(-c3ccc(C(=O)Nc4ccccc4)cc3)c2)c2nn[nH]c2n1` [Example 104, 3′-((5-Amino-3H-[1,2,3]triazolo[4,5-b]pyridin-7-yloxy)methyl)-N-phenylbiphenyl-4-carboxamide] as the molecule, how does the IC50 read?
**A.** 101 to 999 nM

**Q.** `COc1ccc(-c2cccc(COc3cc(N)nc4[nH]nnc34)c2)cc1F` [Example 105, 7-((3′-Fluoro-4′-methoxybiphenyl-3-yl)methoxy)-3H-[1,2,3]triazolo[4,5-b]pyridin-5-amine] was tested. Which IC50 did it give?
**A.** 1 to 100 nM

**Q.** With `Nc1cc(OCc2ccc(Br)cc2)c2nn[nH]c2n1` [Example 106, 7-(4-Bromobenzyloxy)-3H-[1,2,3]triazolo[4,5-b]pyridin-5-amine] as the molecule, how does the IC50 read?
**A.** 1 to 100 nM
